Experimental findings from patent publication US9783532B2, “Molecules having certain pesticidal utilities, and intermediates, compositions, and processes related thereto” (Dow AgroSciences LLC, priority 2013, dated 2017) are described below.

Experiment [1] relates to Beet Armyworm (Spodoptera exigua) ("BAW"). The experiment can be described thus: Bioassay on beet armyworm (BAW), 128-well diet tray assay. It is filed as in vivo. Conditions: 168 h, 50 μg/cm^2 on artificial diet, second instar BAW larvae, 25° C., five to seven days, average of eight wells, read-out: BAW % Control (or Mortality) rating. The gist of the method:
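Second-instar larvae (one to five per well) were placed on artificial diet surface-treated with 50 μg/cm^2 compound applied in 90:10 acetone-water and dried, eight wells per compound. Held at 25° C., 14:10 light-dark for five to seven days; percent mortality was scored per well and averaged over the eight wells.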

The test system of experiment [2] is Cabbage Looper (Trichoplusia ni) ("CL"). The experiment can be described thus: Bioassay on cabbage looper (CL), 128-well diet tray assay. It counts as in vivo. Conditions: 168 h, 50 μg/cm^2 on artificial diet, second instar CL larvae, 25° C., five to seven days, average of eight wells, read-out: CL % Control (or Mortality) rating. Put shortly: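 Second-instar larvae (one to five per well) placed on artificial diet surface-treated with 50 μg/cm^2 compound in 90:10 acetone-water, dried before infestation. Held 25 °C, 14:10 light-dark for five to seven days; percent mortality scored per well and averaged over eight wells.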

`Cc1ccc(C(C)C)c(N2CCCS/C2=N\C(=O)NCCc2ccc(-c3ncn(-c4ccc(OC(F)(F)F)cc4)n3)cc2)c1` [P59, (Z)-1-(3-(2-isopropyl-5-methylphenyl)-1,3-thiazinan-2-ylidene)-3-(4-(1-(4-(trifluoromethoxy)phenyl)-1H-1,2,4-triazol-3-yl)phenethyl)urea]: the mortality at 50 µg/cm2 in experiment [1] and in experiment [2] was 50 to 100% each time.

Turning to `Cc1ccc(C(C)C)c(N2CC(C)CS/C2=N\C(=O)NCCc2ccc(-c3ncn(-c4ccc(OC(F)(F)F)cc4)n3)cc2)c1` (stereo not drawn) [P64], the mortality at 50 µg/cm2 in experiment [1] and in experiment [2] was 50 to 100% each time.

Regarding `Cc1ccccc1N1C(=O)CS/C1=N\C(=O)NCCc1cccc(-c2ncn(-c3ccc(OC(F)(F)F)cc3)n2)c1` [P74, (Z)-1-(4-oxo-3-(o-tolyl)thiazolidin-2-ylidene)-3-(3-(1-(4-(trifluoromethoxy)phenyl)-1H-1,2,4-triazol-3-yl)phenethyl)urea], the mortality at 50 µg/cm2 in experiment [1] and in experiment [2] was 50 to 100% throughout.

In the case of `CCc1ccccc1N1C(=O)CS/C1=N\C(=O)NCCc1cccc(-c2ncn(-c3ccc(OC(F)(F)F)cc3)n2)c1` [P75, (Z)-1-(3-(2-ethylphenyl)-4-oxothiazolidin-2-ylidene)-3-(3-(1-(4-(trifluoromethoxy)phenyl)-1H-1,2,4-triazol-3-yl)phenethyl)urea], the mortality at 50 µg/cm2 in experiment [1] and in experiment [2] was 50 to 100% throughout.

Regarding `CC(C)c1ccccc1N1C(=O)CS/C1=N\C(=O)NCCc1cccc(-c2ncn(-c3ccc(OC(F)(F)F)cc3)n2)c1` [P76, (Z)-1-(3-(2-isopropylphenyl)-4-oxothiazolidin-2-ylidene)-3-(3-(1-(4-(trifluoromethoxy)phenyl)-1H-1,2,4-triazol-3-yl)phenethyl)urea], the mortality at 50 µg/cm2 in experiment [1] and in experiment [2] was 50 to 100% throughout.

With `CCCc1ccc(C)cc1N1C(=O)CS/C1=N\C(=O)NCCc1cccc(-c2ncn(-c3ccc(OC(F)(F)F)cc3)n2)c1` [P80, (Z)-1-(3-(5-methyl-2-propylphenyl)-4-oxothiazolidin-2-ylidene)-3-(3-(1-(4-(trifluoromethoxy)phenyl)-1H-1,2,4-triazol-3-yl)phenethyl)urea], the mortality at 50 µg/cm2 in experiment [1] and in experiment [2] was 50 to 100% in each case.

Turning to `CCc1cccc(C)c1N1C(=O)CS/C1=N\C(=O)NCCc1cccc(-c2ncn(-c3ccc(OC(F)(F)F)cc3)n2)c1` [P83, (Z)-1-(3-(2-ethyl-6-methylphenyl)-4-oxothiazolidin-2-ylidene)-3-(3-(1-(4-(trifluoromethoxy)phenyl)-1H-1,2,4-triazol-3-yl)phenethyl)urea], the mortality at 50 µg/cm2 in experiment [1] and in experiment [2] was 50 to 100% each time.

On to `Cc1ccc(N2C(=O)CS/C2=N\C(=O)NCCc2cccc(-c3ncn(-c4ccc(OC(F)(F)F)cc4)n3)c2)c(C(C)C)c1` [P84, (Z)-1-(3-(2-isopropyl-4-methylphenyl)-4-oxothiazolidin-2-ylidene)-3-(3-(1-(4-(trifluoromethoxy)phenyl)-1H-1,2,4-triazol-3-yl)phenethyl)urea], for which the mortality at 50 µg/cm2 in experiment [1] and in experiment [2] was 50 to 100% throughout.

Take `CC(C)c1cc(F)ccc1N1C(=O)CS/C1=N\C(=O)NCCc1cccc(-c2ncn(-c3ccc(OC(F)(F)F)cc3)n2)c1` [P85, (Z)-1-(3-(4-fluoro-2-isopropylphenyl)-4-oxothiazolidin-2-ylidene)-3-(3-(1-(4-(trifluoromethoxy)phenyl)-1H-1,2,4-triazol-3-yl)phenethyl)urea]: the mortality at 50 µg/cm2 in experiment [1] and in experiment [2] was 50 to 100% in each case.

For the compound `COc1ccc(N2C(=O)CS/C2=N\C(=O)NCCc2cccc(-c3ncn(-c4ccc(OC(F)(F)F)cc4)n3)c2)c(C)c1` [P87, (Z)-1-(3-(4-methoxy-2-methylphenyl)-4-oxothiazolidin-2-ylidene)-3-(3-(1-(4-(trifluoromethoxy)phenyl)-1H-1,2,4-triazol-3-yl)phenethyl)urea], the mortality at 50 µg/cm2 in experiment [1] and in experiment [2] was 50 to 100% throughout.

Take `Cc1ccccc1N1C(=O)CS/C1=N\C(=O)NCCCc1ccc(-c2ncn(-c3ccc(OC(F)(F)F)cc3)n2)cc1` [P92, (Z)-1-(4-oxo-3-(o-tolyl)thiazolidin-2-ylidene)-3-(3-(4-(1-(4-(trifluoromethoxy)phenyl)-1H-1,2,4-triazol-3-yl)phenyl)propyl)urea]: the mortality at 50 µg/cm2 in experiment [1] and in experiment [2] was 50 to 100% each time.

Turning to `CCc1ccccc1N1C(=O)CS/C1=N\C(=O)NCCCc1ccc(-c2ncn(-c3ccc(OC(F)(F)F)cc3)n2)cc1` [P93, P510, (Z)-1-(3-(2-ethylphenyl)-4-oxothiazolidin-2-ylidene)-3-(3-(4-(1-(4-(trifluoromethoxy)phenyl)-1H-1,2,4-triazol-3-yl)phenyl)propyl)urea], the mortality at 50 µg/cm2 in experiment [1] and in experiment [2] was 50 to 100% in each case.

Take `CC(C)c1ccccc1N1C(=O)CS/C1=N\C(=O)NCCCc1ccc(-c2ncn(-c3ccc(OC(F)(F)F)cc3)n2)cc1` [P94, P197, (Z)-1-(3-(2-isopropylphenyl)-4-oxothiazolidin-2-ylidene)-3-(3-(4-(1-(4-(trifluoromethoxy)phenyl)-1H-1,2,4-triazol-3-yl)phenyl)propyl)urea]: the mortality at 50 µg/cm2 in experiment [1] and in experiment [2] was 50 to 100% in each case.

For the compound `CCCc1ccc(C)cc1N1C(=O)CS/C1=N\C(=O)NCCCc1ccc(-c2ncn(-c3ccc(OC(F)(F)F)cc3)n2)cc1` [P99, P830, (Z)-1-(3-(5-methyl-2-propylphenyl)-4-oxothiazolidin-2-ylidene)-3-(3-(4-(1-(4-(trifluoromethoxy)phenyl)-1H-1,2,4-triazol-3-yl)phenyl)propyl)urea], the mortality at 50 µg/cm2 in experiment [1] and in experiment [2] was 50 to 100% each time.

`Cc1ccc(N2C(=O)CS/C2=N\C(=O)NCCCc2ccc(-c3ncn(-c4ccc(OC(F)(F)F)cc4)n3)cc2)c(C(C)C)c1` [P102, (Z)-1-(3-(2-isopropyl-4-methylphenyl)-4-oxothiazolidin-2-ylidene)-3-(3-(4-(1-(4-(trifluoromethoxy)phenyl)-1H-1,2,4-triazol-3-yl)phenyl)propyl)urea]: the mortality at 50 µg/cm2 in experiment [1] and in experiment [2] was 50 to 100% in each case.

`CC(C)c1cc(F)ccc1N1C(=O)CS/C1=N\C(=O)NCCCc1ccc(-c2ncn(-c3ccc(OC(F)(F)F)cc3)n2)cc1` [P103, P1150, (Z)-1-(3-(4-fluoro-2-isopropylphenyl)-4-oxothiazolidin-2-ylidene)-3-(3-(4-(1-(4-(trifluoromethoxy)phenyl)-1H-1,2,4-triazol-3-yl)phenyl)propyl)urea]: the mortality at 50 µg/cm2 in experiment [1] and in experiment [2] was 50 to 100% each time.

In the case of `COc1ccc(N2C(=O)CS/C2=N\C(=O)NCCCc2ccc(-c3ncn(-c4ccc(OC(F)(F)F)cc4)n3)cc2)c(C)c1` [P105, (Z)-1-(3-(4-methoxy-2-methylphenyl)-4-oxothiazolidin-2-ylidene)-3-(3-(4-(1-(4-(trifluoromethoxy)phenyl)-1H-1,2,4-triazol-3-yl)phenyl)propyl)urea], the mortality at 50 µg/cm2 in experiment [1] and in experiment [2] was 50 to 100% each time.

`Cc1ccccc1N1C(=O)CS/C1=N\C(=O)NCCCc1cccc(-c2ncn(-c3ccc(OC(F)(F)F)cc3)n2)c1` [P118, (Z)-1-(4-oxo-3-(o-tolyl)thiazolidin-2-ylidene)-3-(3-(3-(1-(4-(trifluoromethoxy)phenyl)-1H-1,2,4-triazol-3-yl)phenyl)propyl)urea]: the mortality at 50 µg/cm2 in experiment [1] and in experiment [2] was 50 to 100% throughout.
